{"source": "patent US9765092B2", "about": "“Tricyclic piperidine compounds” (ACTELION PHARMACEUTICALS LTD, priority 2013, dated 2017)", "molecular_target": "human TPH1 (Homo sapiens (Human), UniProt P17752)", "sequence (P17752 whole entry)": "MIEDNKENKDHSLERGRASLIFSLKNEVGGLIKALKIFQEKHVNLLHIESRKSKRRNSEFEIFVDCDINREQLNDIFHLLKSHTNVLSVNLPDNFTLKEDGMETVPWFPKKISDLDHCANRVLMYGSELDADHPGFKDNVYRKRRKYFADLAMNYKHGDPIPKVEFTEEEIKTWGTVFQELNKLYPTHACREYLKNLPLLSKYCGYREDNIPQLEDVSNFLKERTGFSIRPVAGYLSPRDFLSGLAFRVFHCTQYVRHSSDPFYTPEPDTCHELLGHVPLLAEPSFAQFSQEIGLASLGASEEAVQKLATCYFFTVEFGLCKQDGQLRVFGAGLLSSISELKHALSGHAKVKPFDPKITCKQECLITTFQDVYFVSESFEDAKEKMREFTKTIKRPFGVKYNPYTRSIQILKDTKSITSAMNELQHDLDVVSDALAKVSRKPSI", "assay": "Biochemical in vitro assay using fluorescence readout (TPH1 inhibition)", "conditions": "human TPH1, fluorescence readout"}
{"smiles": "COC(=O)c1cnc(C2c3c(nc4sc(C)nn34)CCN2C(=O)COc2ccc(C(F)(F)F)cc2Cl)s1", "note": "(stereo not drawn) [Example 1.28.2, Methyl 2-(6-(2-(2-chloro-4-(trifluoromethyl)phenoxy)acetyl)-2-methyl-5,6,7,8-tetrahydro-[1,3,4]thiadiazolo [2′,3′:2,3]imidazo[4,5-c]pyridin-5-yl)thiazole-5-carboxylate]", "values": [{"measurement": "IC50", "value": 40, "unit": "nM"}]}
{"smiles": "COC(=O)c1cnc(C2c3c(nc4sc(C)nn34)CCN2C(=O)COc2ccc(NS(=O)(=O)C3CC3)nc2Cl)s1", "note": "(stereo not drawn) [Example 1.28.3, Methyl 2-(6-(2-((2-chloro-6-(cyclopropanesulfonamido)pyridin-3-yl)oxy)acetyl)-2-methyl-5,6,7,8-tetrahydro-[1,3,4]thiadiazolo[2′,3′:2,3]imidazo[4,5-c]pyridin-5-yl)thiazole-5-carboxylate]", "values": [{"measurement": "IC50", "value": 45, "unit": "nM"}]}
{"smiles": "COC(=O)c1cnc(C2c3c(nc4sc(C)nn34)CCN2C(=O)COc2ccc(N3CC(F)(F)C3)nc2Cl)s1", "note": "(stereo not drawn) [Example 1.28.4, Methyl 2-(6-(2-((2-chloro-6-(3,3-difluoroazetidin-1-yl)pyridin-3-yl)oxy)acetyl)-2-methyl-5,6,7,8-tetrahydro-[1,3,4]thiadiazolo[2′,3′:2,3]imidazo[4,5-c]pyridin-5-yl)thiazole-5-carboxylate]", "values": [{"measurement": "IC50", "value": 17, "unit": "nM"}]}
{"smiles": "CCOC(=O)c1coc(C2c3c(nc4sc(C)nn34)CCN2C(=O)COc2ccc(N3CCOCC3)nc2Cl)n1", "note": "(stereo not drawn) [Example 1.29.1, Ethyl 2-(6-(2-((2-chloro-6-morpholinopyridin-3-yl)oxy)acetyl)-2-methyl-5,6,7,8-tetrahydro-[1,3,4]thiadiazolo [2′,3′:2,3]imidazo[4,5-c]pyridin-5-yl)oxazole-4-carboxylate]", "values": [{"measurement": "IC50", "value": 20, "unit": "nM"}]}
{"smiles": "CCOC(=O)c1ncc(C2c3c(nc4sc(C)nn34)CCN2C(=O)COc2ccc(N3CCOCC3)nc2Cl)s1", "note": "(stereo not drawn) [Example 1.30.1, Ethyl 5-(6-(2-((2-chloro-6-morpholinopyridin-3-yl)oxy)acetyl)-2-methyl-5,6,7,8-tetrahydro-[1,3,4]thiadiazolo [2′,3′:2,3]imidazo[4,5-c]pyridin-5-yl)thiazole-2-carboxylate]", "values": [{"measurement": "IC50", "value": 9, "unit": "nM"}]}
{"smiles": "CCOC(=O)c1ncc(C2c3c(nc4sc(C)nn34)CCN2C(=O)COc2ccc(C(F)(F)F)cc2Cl)s1", "note": "(stereo not drawn) [Example 1.30.2, Ethyl 5-(6-(2-(2-chloro-4-(trifluoromethyl)phenoxy)acetyl)-2-methyl-5,6,7,8-tetrahydro-[1,3,4]thiadiazolo [2′,3′:2,3]imidazo[4,5-c]pyridin-5-yl)thiazole-2-carboxylate]", "values": [{"measurement": "IC50", "value": 442, "unit": "nM"}]}
{"smiles": "CCOC(=O)c1ncc(C2c3c(nc4sc(C)nn34)CCN2C(=O)COc2ccc(C#N)cc2Cl)s1", "note": "(stereo not drawn) [Example 1.30.3, Ethyl 5-(6-(2-(2-chloro-4-cyanophenoxy)acetyl)-2-methyl-5,6,7,8-tetrahydro-[1,3,4]thiadiazolo[2′,3′:2,3]imidazo[4,5-c]pyridin-5-yl)thiazole-2-carboxylate]", "values": [{"measurement": "IC50", "value": 371, "unit": "nM"}]}
{"smiles": "Cc1cnc(C2c3c(nc4sc(C)nn34)CCN2C(=O)COc2ccc(C(F)(F)F)cc2Cl)c(F)c1", "note": "(stereo not drawn) [Example 1.31.1, 2-(2-chloro-4-(trifluoromethyl)phenoxy)-1-(5-(3-fluoro-5-methylpyridin-2-yl)-2-methyl-7,8-dihydro-[1,3,4]thiadiazolo [2′,3′:2,3]imidazo[4,5-c]pyridin-6(5H)-yl)ethanone]", "values": [{"measurement": "IC50", "value": 14, "unit": "nM"}]}
{"smiles": "Cc1cnc(C2c3c(nc4sc(C)nn34)CCN2C(=O)COc2ccc(N3CCOCC3)nc2Cl)c(F)c1", "note": "(stereo not drawn) [Example 1.31.2, 2-((2-chloro-6-morpholinopyridin-3-yl)oxy)-1-(5-(3-fluoro-5-methylpyridin-2-yl)-2-methyl-7,8-dihydro-[1,3,4]thiadiazolo [2′,3′:2,3]imidazo[4,5-c]pyridin-6(5H)-yl)ethanone]", "values": [{"measurement": "IC50", "value": 5, "unit": "nM"}]}
{"smiles": "Cc1cnc(C2c3c(nc4sc(C)nn34)CCN2C(=O)COc2ccc(C#N)nc2Cl)c(F)c1", "note": "(stereo not drawn) [Example 1.31.3, 6-chloro-5-(2-(5-(3-fluoro-5-methylpyridin-2-yl)-2-methyl-7,8-dihydro-[1,3,4]thiadiazolo[2′,3′:2,3]imidazo[4,5-c]pyridin-6(5H)-yl)-2-oxoethoxy)picolinonitrile]", "values": [{"measurement": "IC50", "value": 36, "unit": "nM"}]}
{"smiles": "Cc1cnc(C2c3c(nc4sc(C)nn34)CCN2C(=O)COc2ccc(C#N)cc2Cl)c(F)c1", "note": "(stereo not drawn) [Example 1.31.4, 3-chloro-4-(2-(5-(3-fluoro-5-methylpyridin-2-yl)-2-methyl-7,8-dihydro-[1,3,4]thiadiazolo[2′,3′:2,3]imidazo[4,5-c]pyridin-6(5H)-yl)-2-oxoethoxy)benzonitrile]", "values": [{"measurement": "IC50", "value": 49, "unit": "nM"}]}
{"smiles": "Cc1cnc(C2c3c(nc4sc(C)nn34)CCN2C(=O)COc2ccc(C(F)(F)F)nc2Cl)c(F)c1", "note": "(stereo not drawn) [Example 1.31.5, 2-((2-chloro-6-(trifluoromethyl)pyridin-3-yl)oxy)-1-(5-(3-fluoro-5-methylpyridin-2-yl)-2-methyl-7,8-dihydro-[1,3,4]thiadiazolo[2′,3′:2,3]imidazo[4,5-c]pyridin-6(5H)-yl)ethanone]", "values": [{"measurement": "IC50", "value": 21, "unit": "nM"}]}
{"smiles": "CNC(=O)c1ccc(OCC(=O)N2CCc3nc4sc(C)nn4c3C2c2ncc(C)cc2F)c(Cl)n1", "note": "(stereo not drawn) [Example 1.31.6, 6-chloro-5-(2-(5-(3-fluoro-5-methylpyridin-2-yl)-2-methyl-7,8-dihydro-[1,3,4]thiadiazolo[2′,3′:2,3]imidazo[4,5-c]pyridin-6(5H)-yl)-2-oxoethoxy)-N-methylpicolinamide]", "values": [{"measurement": "IC50", "value": 7, "unit": "nM"}]}
{"smiles": "Cc1cnc(C2c3c(nc4sc(C)nn34)CCN2C(=O)COc2ccc(C(=O)N(C)C)nc2Cl)c(F)c1", "note": "(stereo not drawn) [Example 1.31.7, 6-chloro-5-(2-(5-(3-fluoro-5-methylpyridin-2-yl)-2-methyl-7,8-dihydro-[1,3,4]thiadiazolo[2′,3′:2,3]imidazo[4,5-c]pyridin-6(5H)-yl)-2-oxoethoxy)-N,N-dimethylpicolinamide]", "values": [{"measurement": "IC50", "value": 6, "unit": "nM"}]}
{"smiles": "Cc1cnc(C2c3c(nc4sc(C)nn34)CCN2C(=O)COc2ccc(NS(C)(=O)=O)nc2Cl)c(F)c1", "note": "(stereo not drawn) [Example 1.31.8, N-(6-chloro-5-(2-(5-(3-fluoro-5-methylpyridin-2-yl)-2-methyl-7,8-dihydro-[1,3,4]thiadiazolo[2′,3′:2,3]imidazo[4,5-c]pyridin-6(5H)-yl)-2-oxoethoxy)pyridin-2-yl)methanesulfonamide]", "values": [{"measurement": "IC50", "value": 9, "unit": "nM"}]}
{"smiles": "Cc1cnc(C2c3c(nc4sc(C)nn34)CCN2C(=O)COc2ccc(NS(=O)(=O)C3CC3)nc2Cl)c(F)c1", "note": "(stereo not drawn) [Example 1.31.9, N-(6-chloro-5-(2-(5-(3-fluoro-5-methylpyridin-2-yl)-2-methyl-7,8-dihydro-[1,3,4]thiadiazolo[2′,3′:2,3]imidazo[4,5-c]pyridin-6(5H)-yl)-2-oxoethoxy)pyridin-2-yl)cyclopropanesulfonamide]", "values": [{"measurement": "IC50", "value": 21, "unit": "nM"}]}
{"smiles": "Cc1cnc(C2c3c(nc4sc(C)nn34)CCN2C(=O)COc2ccc(NS(C)(=O)=O)cc2Cl)c(F)c1", "note": "(stereo not drawn) [Example 1.31.10, N-(3-chloro-4-(2-(5-(3-fluoro-5-methylpyridin-2-yl)-2-methyl-7,8-dihydro-[1,3,4]thiadiazolo[2′,3′:2,3]imidazo[4,5-c]pyridin-6(5H)-yl)-2-oxoethoxy)phenyl)methanesulfonamide]", "values": [{"measurement": "IC50", "value": 11, "unit": "nM"}]}
{"smiles": "COC1(C)CN(c2ccc(OCC(=O)N3CCc4nc5sc(C)nn5c4[C@@H]3c3ncc(C)cc3F)c(Cl)n2)C1", "note": "[Example 1.31.11, (R)-2-((2-chloro-6-(3-methoxy-3-methylazetidin-1-yl)pyridin-3-yl)oxy)-1-(5-(3-fluoro-5-methylpyridin-2-yl)-2-methyl-7,8-dihydro-[1,3,4]thiadiazolo[2′,3′:2,3]imidazo[4,5-c]pyridin-6(5H)-yl)ethanone]", "values": [{"measurement": "IC50", "value": 23, "unit": "nM"}]}
{"smiles": "Cc1cnc([C@H]2c3c(nc4sc(C)nn34)CCN2C(=O)COc2ccc(C3(N(C)C)CC3)nc2Cl)c(F)c1", "note": "[Example 1.31.12, (R)-2-((2-chloro-6-(1-(dimethylamino)cyclopropyl)pyridin-3-yl)oxy)-1-(5-(3-fluoro-5-methylpyridin-2-yl)-2-methyl-7,8-dihydro-[1,3,4]thiadiazolo[2′,3′:2,3]imidazo[4,5-c]pyridin-6(5H)-yl)ethanone]", "values": [{"measurement": "IC50", "value": 217, "unit": "nM"}]}
{"smiles": "Cc1cnc(C2c3c(nc4sc(C)nn34)CCN2C(=O)COc2ccc(-c3ncco3)nc2Cl)c(F)c1", "note": "(stereo not drawn) [Example 1.31.13, 2-((2-chloro-6-(oxazol-2-yl)pyridin-3-yl)oxy)-1-(5-(3-fluoro-5-methylpyridin-2-yl)-2-methyl-7,8-dihydro-[1,3,4]thiadiazolo[2′,3′:2,3]imidazo[4,5-c]pyridin-6(5H)-yl)ethanone]", "values": [{"measurement": "IC50", "value": 16, "unit": "nM"}]}
{"smiles": "Cc1cnc(C2c3c(nc4sc(C)nn34)CCN2C(=O)COc2ccc(C(=O)N(C)C3CC3)nc2Cl)c(F)c1", "note": "(stereo not drawn) [Example 1.31.14, 6-chloro-N-cyclopropyl-5-(2-(5-(3-fluoro-5-methylpyridin-2-yl)-2-methyl-7,8-dihydro-[1,3,4]thiadiazolo[2′,3′:2,3]imidazo[4,5-c]pyridin-6(5H)-yl)-2-oxoethoxy)-N-methylpicolinamide]", "values": [{"measurement": "IC50", "value": 32, "unit": "nM"}]}
{"smiles": "Cc1cnc([C@H]2c3c(nc4sc(C)nn34)CCN2C(=O)COc2ccc(N(C)S(C)(=O)=O)nc2Cl)c(F)c1", "note": "[Example 1.31.15, (R)-N-(6-chloro-5-(2-(5-(3-fluoro-5-methylpyridin-2-yl)-2-methyl-7,8-dihydro-[1,3,4]thiadiazolo[2′,3′:2,3]-imidazo[4,5-c]pyridin-6(5H)-yl)-2-oxoethoxy)pyridin-2-yl)-N-methylmethanesulfonamide]", "values": [{"measurement": "IC50", "value": 9, "unit": "nM"}]}
{"smiles": "CCc1nc(NS(C)(=O)=O)ccc1OCC(=O)N1CCc2nc3sc(C)nn3c2[C@@H]1c1ncc(C)cc1F", "note": "[Example 1.31.16, (R)-N-(6-ethyl-5-(2-(5-(3-fluoro-5-methylpyridin-2-yl)-2-methyl-7,8-dihydro-[1,3,4]thiadiazolo[2′,3′:2,3]imidazo[4,5-c]pyridin-6(5H)-yl)-2-oxoethoxy)pyridin-2-yl)methanesulfonamide]", "values": [{"measurement": "IC50", "value": 18, "unit": "nM"}]}
{"smiles": "Cc1cnc([C@H]2c3c(nc4sc(C)nn34)CCN2C(=O)COc2ccc(N3CCCS3(=O)=O)nc2Cl)c(F)c1", "note": "[Example 1.31.17, (R)-2-((2-chloro-6-(1,1-dioxidoisothiazolidin-2-yl)pyridin-3-yl)oxy)-1-(5-(3-fluoro-5-methylpyridin-2-yl)-2-methyl-7,8-dihydro-[1,3,4]thiadiazolo[2′,3′:2,3]imidazo[4,5-c]pyridin-6(5H)-yl)ethanone]", "values": [{"measurement": "IC50", "value": 8, "unit": "nM"}]}
